First: CN(C)C(=O)Cc1nn(-c2cccnc2)c(=O)c2c1c1ccc(F)cc1n2C.Cl
Second: CN(C)C(=O)Cc1nn(-c2cccnc2)c(=O)c2c1c1ccc(Cl)cc1n2C.Cl
The melting point of the first is lower: 244 to 250 °C for the first, 250 to 252 °C for the second.

Compared with `CN(C)C(=O)Cc1nn(-c2ccncc2)c(=O)c2c1c1ccc(F)cc1n2C.Cl`, `CN(C)C(=O)Cc1nn(-c2ccncc2)c(=O)c2c1c1ccc(Cl)cc1n2C.Cl` is higher in melting point: 267 to 270 °C for the first, 275 to 279 °C for the second.

Compared with `CN(C)C(=O)Cc1nn(-c2ccccn2)c(=O)c2c1c1ccc(F)cc1n2C` [Compound 1, 7-fluoro-N,N,5-trimethyl-4-oxo-3-(pyridin-2-yl)-3,5-dihydro-4H-pyridazino[4,5-b]indole-1-acetamide], `CN(C)C(=O)Cc1nn(-c2ccccn2)c(=O)c2c1c1ccc(Cl)cc1n2C` [Compound 4, 7-chloro-N,N,5-trimethyl-4-oxo-3-(pyridin-2-yl)-3,5-dihydro-4H-pyridazino[4,5-b]indole-1-acetamide] is lower in melting point: 222 to 223 °C for the first, 183 to 184 °C for the second.

First: CN(C)C(=O)Cc1nn(-c2cccnc2)c(=O)c2c1c1ccc(Cl)cc1n2C [Compound 5, 7-chloro-N,N,5-trimethyl-4-oxo-3-(pyridin-3-yl)-3,5-dihydro-4H-pyridazino[4,5-b]indole-1-acetamide]
Second: CCN(CC)C(=O)Cc1nn(-c2cccnc2)c(=O)c2c1c1ccc(Cl)cc1n2C [Compound 9, 7-chloro-N,N-diethyl-5-methyl-4-oxo-3-(pyridin-3-yl)-3,5-dihydro-4H-pyridazino[4,5-b]indole-1-acetamide]
The melting point of the first is higher: 255 to 256 °C for the first, 199 to 200 °C for the second.

Molecule `Cc1ccc(-n2nc(CC(=O)N(C)C)c3c4ccc(Cl)cc4n(C)c3c2=O)cn1` [Compound 8, 7-chloro-N,N,5-trimethyl-4-oxo-3-(6-methylpyridin-3-yl)-3,5-dihydro-4H-pyridazino[4,5-b]indole-1-acetamide] has a melting point of 253 to 255 °C.

Reference: patent publication US7235554B2, “3-heteroaryl-3,5-dihydro-4-oxo-4H-pyridazino[4,5-b] indole-1-acetamide derivatives, preparation and use thereof in medicaments” (Sanofi-Aventis, priority 2002, dated 2007)
